According to BindingDB's records for doi:10.7270/Q25H7DV5 (Burnham Center For Chemical Genomics, 2011):

Molecular target: DNA dC->dU-editing enzyme APOBEC-3G (Homo sapiens, UniProt Q9HC16)
Test: APOBEC3G deaminase inhibitors, SAR follow-up, biochemical, fluorescence, single-stranded DNA substrate (AID 602136)
Conditions: 25 °C

Chain of DNA dC->dU-editing enzyme APOBEC-3G (Q9HC16 whole entry): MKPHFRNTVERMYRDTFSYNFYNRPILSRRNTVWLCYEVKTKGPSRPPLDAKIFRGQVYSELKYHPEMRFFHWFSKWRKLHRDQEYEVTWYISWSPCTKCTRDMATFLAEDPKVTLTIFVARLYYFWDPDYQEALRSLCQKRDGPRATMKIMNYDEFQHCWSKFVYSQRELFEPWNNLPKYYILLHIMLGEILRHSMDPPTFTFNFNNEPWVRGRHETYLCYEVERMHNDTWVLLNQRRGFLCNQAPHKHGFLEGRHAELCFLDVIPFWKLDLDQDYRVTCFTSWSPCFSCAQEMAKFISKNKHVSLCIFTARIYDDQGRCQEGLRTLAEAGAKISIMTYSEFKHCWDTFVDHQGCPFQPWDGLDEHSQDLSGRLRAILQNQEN

Row | Compound | IC50 [µM]
1 | CCN1C(SCC(=O)NCc2ccco2)=NNC1=C1C=CC=CC1=O | > 99
2 | CC1(C)Oc2ccc3ccc(=O)oc3c2C(CN=O)=C1Cl [9-chloro-2-keto-8,8-dimethyl-pyrano[2,3-f]chromene-10-carbaldehyde oxime] | > 99
